Measured values from PMC11986105, “Antibacterial macrocyclic peptides reveal a distinct mode of BamA inhibition” (Nature Communications, 2025).
≈ marks a conversion by molar mass, not a printed value. Where two headings read alike, the source gives them in different places. Bridge positions count the residues as written; N and C are the ends. Square brackets hold non-standard residues; d marks the D form. Peptide text beside a SMILES is read from it. Gly(NCH2CH2Ph) = O=C(O)CNCCc1ccccc1; NMeF = CN[C@@H](Cc1ccccc1)C(=O)O; Tic = O=C(O)[C@@H]1Cc2ccccc2CN1

How the values were obtained:
[1] = test system: EspP(G1123R) assembly in AD202 (bamA+); assay: Pulse-chase assembly of slow mutant EspP(G1123R) in AD202; type: cell-based, Escherichia coli; settings: for effect on EspP(G1123R) assembly when added after the mutant binds to BAM: added 2 min after the start of the chase, peptides 2x MIC, EDTA 2.5 mM, sorbitol 0.8 M
Protocol: AD202 (MC4100 ompT::kan) transformed with pJH224 [Ptrc-espP(G1123R)] were grown to log phase in M9, the expression of espP(G1123R) was induced by adding 10 µM IPTG, and cells were subjected to pulse-chase labeling. […] Immunoprecipitations were performed using an anti-EspP C-terminal peptide antiserum and proteins were resolved by SDS-PAGE. Representative experiments are shown (left), and the completion of EspP(G1123R) assembly was quantitated by calculating the percent of radiolabeled proEspP(G1123R) that underwent autocatalytic cleavage in untreated cells (control) or cells treated with the indicated peptide 2 min after the start of the chase (red arrows) in three biologically independent experiments (right). […] The data are presented as mean values and error bars represent the SEM. In C 2.5 mM EDTA was added 2 min post-chase, and in E cells were harvested and resuspended in M9 (control) or M9 containing 0.8 M sorbitol 2 min post-chase. A representative experiment is shown (left), and the assembly of EspP(G1123R) in cells treated with EDTA or sorbitol or untreated (control) in three biologically independent experiments was quantitated as in B (right).
To analyze the assembly of OMPs in living cells, overnight cultures of HDB164 (MC4100 ara^R bamA101 ompT::spc) transformed with pJH110 (Ptrc-espPΔ5)[65] or AD202 transformed with pRSL5 (Ptrc-espP)[77] or pJH224 [Ptrc-espP (G1123R)][67] were grown in M9 supplemented with 100 μg/mL ampicillin (M9/ampicillin) at 37 °C. The overnight cultures were washed in M9 and added to 50 ml fresh M9/ampicillin at OD550 = 0.02. When the cultures reached OD550 = 0.2, IPTG (10 μM) was added and the cells were incubated for another 30 min at 37 °C before being subjected to pulse-chase labeling as previously described[66]. At each timepoint 1 ml aliquots were removed and proteins were precipitated by adding 10% (v/v) TCA. […] As a control, an equal amount of DMSO was added. In some experiments, 2.5 mM EDTA, pH 8 was added instead of a cyclic peptide. […]

[2] = test system: AD202 transformed with pJH224; settings: 2.5 mM EDTA or peptide at 2x MIC, 5 or 15 min
Protocol: Overnight cultures of AD202 transformed with pJH224 were grown at 37 °C in M9/ampicillin, washed, and added to 55 ml of fresh medium at OD550 = 0.02. When cultures reached OD550 = 0.2, 10 μM IPTG was added and cultures were incubated at 37 °C for an additional 15 min. Cultures were then divided into five 10 ml aliquots and placed into 15 ml tubes. Cells were pelleted in 15 ml tubes (3000 x g, 15 min, room temperature), resuspended in 1 ml pre-warmed M9 and transferred to 50 ml tubes. […] Cells were then placed into 1.7 ml tubes on ice for 5 min and centrifuged (2900 x g, 6 min, 4 °C). The cell pellet was discarded and the supernatant was centrifuged in a TLA.2 rotor in a Beckman Optima MAX-TL ultracentrifuge (100,000 x g, 30 min, 4 °C). Once again the pellet was discarded, and 5 mL 4x LDS sample buffer was then added to 20 mL of each supernatant (which represents the culture medium of ~0.05 OD equivalents), and molecules located in the culture medium were resolved by SDS-PAGE on 12% Novex Tris-Bis minigels (ThermoFisher) using MES running buffer. LPS was visualized using the Molecular Probes Pro-Q Emerald 300 Lipopolysaccharide Gel Stain Kit (ThermoFisher) following the manufacturer’s instructions.

E. coli BamA β-barrel = target: T1, E. coli BamA β-barrel (Escherichia coli, UniProt P0A940); assay: SPR binding to E. coli BamA β-barrel; settings: for KD: SPR, N-terminally biotinylated E. coli BamA β-barrel, single cycle kinetics, average of 2, 3, or 4 replicates ± SD; for kon: pH 7.5, read-out: ka
T1 construct: residues 421–810 from strain MG1655; made in house
Description: For SPR, E. coli K-12 BamA (EcBamA; residues 421–810 from strain MG1655), A. baumannii BamA (AbBamA; residues 425–841 from strain ATCC19606) and P. aeruginosa BamA (PaBamA; residues 420–797 from strain PAO1) were synthesized and cloned into pET23b (Millipore Sigma) with a N-terminal Avitag for biotin conjugation. For mRNA display screening, an additional E. coli BamA (421–810) construct (EcBamA′) was designed with an N-terminal His tag, a TEV protease cleavage site, and three point mutations (C690S/C700S/S752C) to allow for site specific biotinylation of residue 752.
For peptide binding assays a Cytiva Series S CAP sensor chip was loaded onto a Biacore T200, and the chip surface was prepared according to the manufacturer’s recommendations. The running buffer was 10 mM HEPES pH 7.5, 150 mM NaCl, 0.1% LDAO. Briefly, the CAP reagent (Cytiva) was diluted 1:10 in HBS-EP buffer (0.01 M HEPES pH 7.4, 0.15 M NaCl, 3 mM EDTA, 0.005% v/v Surfactant P20) and flowed across the chip surface for 300 sec. Biotinylated EcBamA, PaBamA, or AbBamA was then immobilized on the surface by flowing the protein over the chip for 200 sec. Cyclic peptides were injected at concentrations of 12.3, 37, 111, 333 and 1000 nM in single-cycle kinetic mode for 120 sec followed by a 120 sec dissociation period, and after the highest concentration of peptide was injected the dissociation period was 1200 sec. The chip surface was regenerated after each peptide was tested by flowing regeneration solution (8 M guanidine HCl, 1 M NaOH) over the chip surface.

[3] = test system: E. coli BamA101 (JCM972, MC4100 bamA101); type: cell-based, Escherichia coli; settings: in solution, CAMHB broth microdilution
Protocol: (§1) The MICs of the cyclic peptides obtained in the mRNA display screens against E. coli strains JCM158 and JCM972 were measured using broth microdilution in cation-adjusted Mueller−Hinton broth (CAMHB), as recommended by the Clinical and Laboratory Standards Institute. In addition, zone of inhibition (ZOI) assays using JCM158, JCM972, AM710, AM711, MB5746, Acinetobacter baumannii ATCC17987, Pseudomonas aeruginosa MB5919, and Staphylococcus aureus Col were performed to provide a visual display of the relative susceptibility of the strains to the peptides. Briefly, ZOI studies were performed by first growing the bacteria in CAMHB to late exponential phase at 37 °C. Molten CAMHA (CAMHB containing 1.2% agar) was equilibrated to 48 °C in a water bath for 60 min. Cells were then mixed with 30 mL of the molten CAMHA at a 1:1000 dilution and immediately poured onto an Omni-tray plate (NUNC cat# 242811). The agar plate was kept at room temperature for 20 min to solidify and further dried in a biosafety cabinet for ~20 min. Each peptide was dissolved in DMSO, and 2–5 µL aliquots were dispensed onto the top of the plate in a two-fold dilution series in which the peptides were diluted in DMSO. After the liquid was absorbed, plates were incubated at 37 °C for 18 h, and images were acquired using a Hi-Res imaging system.

[4] = test system: E. coli WT (JCM158, MC4100 ara^r); type: cell-based, Escherichia coli
Protocol: as §1

[5] = test system: EspP(G1123R) assembly in AD202 (bamA+); design: method as in PMID 36165532; settings: cited from earlier work
[6] = test system: wild-type EspP assembly in AD202; assay: Pulse-chase assembly of wild-type EspP in AD202; type: cell-based, Escherichia coli; settings: 0.8 M sorbitol 2 min after start of chase, 28 °C
Protocol: To analyze the assembly of OMPs in living cells, overnight cultures of HDB164 (MC4100 ara^R bamA101 ompT::spc) transformed with pJH110 (Ptrc-espPΔ5)[65] or AD202 transformed with pRSL5 (Ptrc-espP)[77] or pJH224 [Ptrc-espP (G1123R)][67] were grown in M9 supplemented with 100 μg/mL ampicillin (M9/ampicillin) at 37 °C. The overnight cultures were washed in M9 and added to 50 ml fresh M9/ampicillin at OD550 = 0.02. When the cultures reached OD550 = 0.2, IPTG (10 μM) was added and the cells were incubated for another 30 min at 37 °C before being subjected to pulse-chase labeling as previously described[66]. At each timepoint 1 ml aliquots were removed and proteins were precipitated by adding 10% (v/v) TCA. […] As a control, an equal amount of DMSO was added. […] Radioactive proteins were visualized on a Fuji FLA 9000 imager using phoshophorimaging settings, and data was quantitated using Fuji MultiGauge v.
For experiments that involved EspP or EspP derivatives, the accumulated β-barrel was defined as the normalized β-barrel signal, where the normalization factor was (preproEspPsignal + proEspPsignal + β-domainsignal) at the 0 min timepoint for each condition and each experiment. For some experiments that involved EspP or EspP derivatives, the percent cleavage at each timepoint was also measured and was defined as [β-barrel signal /(proEspPsignal + β-barrelsignal)] x 100. […]

In the case of O=C(O)CN(CCN(CC(=O)O)CC(=O)O)CC(=O)O [EDTA], the “effect on EspP(G1123R) assembly, EDTA added prior to synthesis” value ([1]; 2.5 mM EDTA added 1 min or 5 min before the start of the chase) is reported as “accelerates”, the “effect on EspP(G1123R) assembly when added after the mutant binds to BAM” value [1] is reported as “accelerate” and the “release of LPS into the culture medium” value [2] is reported as “releasing LPS into the culture medium”.
For CC(C)C[C@@H]1NC(=O)CN(CCc2ccccc2)C(=O)[C@H](Cc2ccc(O)cc2)NC(=O)[C@H](CCCNC(=N)N)NC(=O)[C@H](CCCNC(=N)N)NC(=O)[C@H](Cc2ccccc2)NC(=O)CSC[C@@H](C(=O)NCC(N)=O)NC(=O)[C@H](Cc2ccc(O)cc2)NC(=O)[C@@H]2Cc3ccccc3CN2C(=O)[C@H](C(C)C)NC(=O)[C@H](Cc2c[nH]c3ccccc23)NC(=O)[C@H](Cc2ccc(O)cc2)NC(=O)[C@H](CC(N)=O)NC(=O)[C@H](CC(=O)O)NC1=O [CP3, F.R.R.Y.PeGly.L.D.N.Y.W.V.Tic.Y.C.G] ({CH2CO}-FRRY[Gly(NCH2CH2Ph)]LDNYWV[Tic]YCG-NH2; thioether N-14), the KD (E. coli BamA β-barrel) was “low-nanomolar range”, the kon (E. coli BamA β-barrel) was 160000 ± 3e+09 M⁻¹ s⁻¹ and the “MIC E. coli BamA101” value [3] was 6.3 µM (≈ 13.3 µg/mL). For the same compound, the “MIC E. coli WT” value ([4]; JCM158, 18 h) was over 50 µM.
For CC(C)C[C@@H]1NC(=O)[C@H](Cc2ccccc2)NC(=O)CSC[C@@H](C(=O)NCC(N)=O)NC(=O)[C@H](CC(=O)O)NC(=O)[C@H](Cc2ccccc2)N(C)C(=O)CNC(=O)[C@H](CCCNC(=N)N)NC(=O)[C@H](C(C)C)NC(=O)[C@@H]2CCCN2C(=O)[C@H](CCCNC(=N)N)NC(=O)[C@H](Cc2c[nH]cn2)NC(=O)[C@H](Cc2ccc(O)cc2)NC(=O)[C@H](Cc2ccccc2)N(C)C(=O)[C@H](Cc2c[nH]c3ccccc23)NC1=O [CP1, F.L.W.MePhe.Y.H.R.P.V.R.G.MePhe.D.C.G] ({CH2CO}-FLW[NMeF]YHRPVRG[NMeF]DCG-NH2; thioether N-14), the KD (E. coli BamA β-barrel) was “low-nanomolar range”, the “MIC E. coli BamA101” value [3] was 12.5 µM (≈ 24.6 µg/mL) and the “MIC E. coli WT” value ([4]; in solution, CAMHB broth microdilution) was over 50 µM.
For NC(N)=NC(=O)CC(Nc1nc(N=C(N)N)nc(NC2CCC(NC(=O)Cn3nnc(-c4ccc(F)cc4)n3)CC2)n1)C1CC1 (centres unmarked) [MRL-494], the “effect on EspP(G1123R) assembly when added after the protein binds to BAM” value [5] is listed as “inhibit the assembly”.
With OC[C@@H](O)[C@@H](O)[C@H](O)[C@@H](O)CO [sorbitol] the “effect on EspP(G1123R) assembly when added after the mutant binds to BAM” value [1] was “accelerate” and the “effect on assembly of wild-type EspP, sorbitol” value [6] was “slightly delay”.
In the case of CC(C)[C@@H]1NC(=O)[C@H](CO)NC(=O)[C@H](CCCNC(=N)N)NC(=O)[C@H](CO)NC(=O)[C@@H]2CCCN2C(=O)[C@H](Cc2c[nH]c3ccccc23)NC(=O)[C@@H]2Cc3ccccc3CN2C(=O)[C@H](Cc2c[nH]c3ccccc23)NC(=O)[C@H](CCCNC(=N)N)NC(=O)CNC(=O)[C@H](CO)NC(=O)[C@H](Cc2ccccc2)NC(=O)CSC[C@@H](C(=O)NCC(N)=O)NC(=O)CNC1=O [CP2, F.S.G.R.W.Tic.W.P.S.R.S.V.G.C.G] ({CH2CO}-FSGRW[Tic]WPSRSVGCG-NH2; thioether N-14), the KD (E. coli BamA β-barrel) is reported as “low-nanomolar range”, the kon (E. coli BamA β-barrel) is reported as 430000 ± 2.9e+10 M⁻¹ s⁻¹ and the “MIC E. coli BamA101” value [3] is reported as 6.3 µM (≈ 11.2 µg/mL). The “MIC E. coli WT” value ([4]; JCM158, 18 h) was over 50 µM.
